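In this assay, cells in 96-well plates receive the compound at five concentrations for 48 hours. Endpoints are linearly interpolated between the surrounding concentrations. GI50: concentration for 50% inhibition of growth.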 The source made the active and inactive calls. Rule as the data show it: active = GI50 up to about 1.1 µM and inactive = higher.
Key:
Test in all cases: NCI tumour cell line growth inhibition, 48 h
OVCAR-5 = system: OVCAR-5
OVCAR-4 = system: OVCAR-4
UACC-62 = system: UACC-62
NCI-H23 = system: NCI-H23
IGROV-1 = system: IGROV-1
LOX IMVI = system: LOX IMVI
SF-295 = system: SF-295
COLO 205 = system: COLO 205
HOP-18 = system: HOP-18
A549 = system: A549
A498 = system: A498
HCT-15 = system: HCT-15
SF-268 = system: SF-268
CAKI-1 = system: CAKI-1
Malme-3M = system: Malme-3M
NCI-H460 = system: NCI-H460
RPMI-8226 = system: RPMI-8226
HCC 2998 = system: HCC 2998
PC-3 = system: PC-3
SR = system: SR

Structure (SMILES)	GI50 (OVCAR-5)	GI50 (OVCAR-4)	GI50 (UACC-62)	GI50 (NCI-H23)	GI50 (IGROV-1)	GI50 (LOX IMVI)	GI50 (SF-295)	GI50 (COLO 205)	GI50 (HOP-18)	GI50 (A549)	GI50 (A498)	GI50 (HCT-15) [µM]	GI50 (SF-268)	GI50 (CAKI-1)	GI50 (Malme-3M)	GI50 (NCI-H460)	GI50 (RPMI-8226)	GI50 (HCC 2998)	GI50 (PC-3)	GI50 (SR)
C=CCN(N=O)C(=O)N(CCC)CCCC(NC(C)=O)C(=O)NCc1ccccc1 (centres undefined)	> 100 µM (inactive)	> 100 µM (inactive)	> 100 µM (inactive)	> 100 µM (inactive)	> 100 µM (inactive)	> 100 µM (inactive)	> 100 µM (inactive)	> 100 µM (inactive)	> 100 µM (inactive)	> 100 µM (inactive)	> 100 µM (inactive)	> 100	> 100 µM (inactive)	> 100 µM (inactive)	> 100 µM (inactive)	> 100 µM (inactive)	> 100 µM (inactive)			
c1ccc2c(c1)Sc1ccccc1N2C1CN2CCC1CC2 (centres undefined)	> 10 µM (inactive)	17.7 µM (inactive)	15.2 µM (inactive)	24.5 µM (inactive)	18.9 µM (inactive)	10.9 µM (inactive)	15.3 µM (inactive)	16.8 µM (inactive)	18.2 µM (inactive)	16.7 µM (inactive)	8.36 µM (inactive)	16.8	16.4 µM (inactive)	17.2 µM (inactive)	16.3 µM (inactive)	16.1 µM (inactive)	23.1 µM (inactive)	14.5 µM (inactive)		
Cc1cc(Cl)ccc1NC(=O)CCCC(=O)C1CCC/C1=N\NC(=O)CC#N (centres undefined)	> 100 µM (inactive)	> 100 µM (inactive)	> 100 µM (inactive)	> 100 µM (inactive)	> 100 µM (inactive)		> 100 µM (inactive)	> 100 µM (inactive)	17.2 µM (inactive)	> 100 µM (inactive)	> 100 µM (inactive)	> 100	> 100 µM (inactive)	> 100 µM (inactive)	> 100 µM (inactive)	> 100 µM (inactive)	75.3 µM (inactive)			
O=C(/C=C1/NC(=O)CS1)Nc1ccccc1	> 100 µM (inactive)	> 100 µM (inactive)	> 100 µM (inactive)	> 100 µM (inactive)	> 100 µM (inactive)	> 10 µM (inactive)	> 100 µM (inactive)	> 100 µM (inactive)	> 100 µM (inactive)	> 100 µM (inactive)	> 100 µM (inactive)		> 100 µM (inactive)	> 100 µM (inactive)	30.8 µM (inactive)	> 100 µM (inactive)	> 100 µM (inactive)	> 100 µM (inactive)		
CCOc1ccc(/N=C/c2cccc3cccnc23)cc1	> 100 µM (inactive)	> 100 µM (inactive)	> 100 µM (inactive)	> 100 µM (inactive)	> 100 µM (inactive)		> 100 µM (inactive)	> 100 µM (inactive)	> 100 µM (inactive)	> 100 µM (inactive)	> 100 µM (inactive)	38.2	> 100 µM (inactive)	> 100 µM (inactive)	> 100 µM (inactive)	> 100 µM (inactive)	30.3 µM (inactive)	> 100 µM (inactive)		
CCN(CC)c1ccc(/N=C2/C=CC(=C(C#N)C#N)c3ccccc32)c(C)c1		1.88 µM (inactive)	1.38 µM (inactive)	1.58 µM (inactive)	2.73 µM (inactive)	1.72 µM (inactive)	2.28 µM (inactive)	2.64 µM (inactive)	2.32 µM (inactive)	2.18 µM (inactive)		2.15		1.72 µM (inactive)	1.87 µM (inactive)	2.55 µM (inactive)	1.38 µM (inactive)			
CC(=O)O[C@H]1CC[C@@]2(C)C(=CC[C@@H]3[C@@H]2CC[C@]2(C)C(=N/O)/C(=C\c4ccccc4)C[C@@H]32)C1	17.1 µM (inactive)	30.1 µM (inactive)	5.94 µM (inactive)	16.3 µM (inactive)	44.2 µM (inactive)	9.14 µM (inactive)	14.8 µM (inactive)	10.6 µM (inactive)		14.4 µM (inactive)	13.4 µM (inactive)	16.5	24.2 µM (inactive)	24.7 µM (inactive)	4.14 µM (inactive)	17.5 µM (inactive)	33.7 µM (inactive)	11.9 µM (inactive)	5.96 µM (inactive)	3.27 µM (inactive)
Oc1ccccc1/C=N/N1C(=S)N(c2ccccc2)C(=N\c2ccccc2)/C1=N/c1ccccc1	34 µM (inactive)	1.27 µM (inactive)	13.9 µM (inactive)	11.1 µM (inactive)	14 µM (inactive)	13.7 µM (inactive)	8.39 µM (inactive)	3.27 µM (inactive)		13.9 µM (inactive)	5.33 µM (inactive)	35	12.1 µM (inactive)	12.4 µM (inactive)	22.4 µM (inactive)	12.4 µM (inactive)	> 35.6 µM (inactive)	23.1 µM (inactive)	16.9 µM (inactive)	18.7 µM (inactive)
COc1ccc(-c2c(CN3CCOCC3)sc3nc4ccccc4n23)cc1	32.3 µM (inactive)	47.6 µM (inactive)	16.7 µM (inactive)	27.4 µM (inactive)	8.09 µM (inactive)	18.5 µM (inactive)	9.08 µM (inactive)	16.4 µM (inactive)		22.2 µM (inactive)	23.7 µM (inactive)	5.58	18.5 µM (inactive)	28.5 µM (inactive)	3.9 µM (inactive)	8.41 µM (inactive)	5.51 µM (inactive)	19 µM (inactive)	9.33 µM (inactive)	3.39 µM (inactive)
O=C1NCC(NC(=O)C(F)(F)F)c2c(Br)sc(Br)c21 (centres undefined)	> 100 µM (inactive)	> 100 µM (inactive)	> 100 µM (inactive)	> 100 µM (inactive)	> 100 µM (inactive)	> 100 µM (inactive)	> 100 µM (inactive)	> 100 µM (inactive)		> 100 µM (inactive)	> 100 µM (inactive)	> 100	> 100 µM (inactive)	> 100 µM (inactive)	> 100 µM (inactive)	> 100 µM (inactive)	> 100 µM (inactive)	> 100 µM (inactive)	> 100 µM (inactive)	> 100 µM (inactive)
N#Cc1ccc(CSC2=C(c3ccc(Cl)cc3)S/C(=C3\SC(SCc4ccc(C#N)cc4)=C(c4ccc(Cl)cc4)S3)S2)cc1	> 100 µM (inactive)	> 100 µM (inactive)	> 100 µM (inactive)	> 100 µM (inactive)	> 100 µM (inactive)	> 100 µM (inactive)	> 100 µM (inactive)	> 100 µM (inactive)		> 100 µM (inactive)	> 100 µM (inactive)	> 100	> 100 µM (inactive)	> 100 µM (inactive)	> 100 µM (inactive)	> 100 µM (inactive)	> 100 µM (inactive)	> 100 µM (inactive)	> 100 µM (inactive)	> 100 µM (inactive)

From ChEMBL document CHEMBL1201862, “PubChem BioAssay data set” (2004)
